Experimental data from paper PMC11338949, “E41K mutation activates Bruton’s tyrosine kinase by stabilizing an inositol hexakisphosphate-dependent invisible dimer” (The Journal of Biological Chemistry, 2024).

Biological target: T1, full-length BTK^E41K (Mus musculus, UniProt P35991, E41K)
T1 construct: The full-length BTK was cloned into the pET28-SUMO vector; His-SUMO (N, cleaved yes); made in house; host or cells: E. coli BL21-DE3, co-transformed with YopH and Trigger factor
Assay: Autophosphorylation assay by immunoblot (Y551) of purified full-length BTK
Assay type: biochemical
Settings: 2 μM BTK, 100 μM ligand, compared to unliganded state
Procedure: The activation of full-length BTK in response to the ligand was determined from the autophosphorylation Y551 or total phosphotyrosine level. Before each reaction, 2 μM BTK was incubated with 100 μM ligand for 10 min. The phosphorylation reaction was performed at 25 °C in a buffer containing 25 mM Tris-Cl (pH 7.5), 2 mM ATP, 10 mM MgCl2, and 1 mM Na3VO4. The reaction was quenched with SDS–PAGE loading buffer. The autophosphorylation levels of full-length BTK were detected by immunoblot ([22]). The amount of BTK loaded was determined using an anti-BTK antibody. Densitometric analysis of immunoblots was performed using Fiji software ([52]).

T1 sequence (P35991 whole entry E41K): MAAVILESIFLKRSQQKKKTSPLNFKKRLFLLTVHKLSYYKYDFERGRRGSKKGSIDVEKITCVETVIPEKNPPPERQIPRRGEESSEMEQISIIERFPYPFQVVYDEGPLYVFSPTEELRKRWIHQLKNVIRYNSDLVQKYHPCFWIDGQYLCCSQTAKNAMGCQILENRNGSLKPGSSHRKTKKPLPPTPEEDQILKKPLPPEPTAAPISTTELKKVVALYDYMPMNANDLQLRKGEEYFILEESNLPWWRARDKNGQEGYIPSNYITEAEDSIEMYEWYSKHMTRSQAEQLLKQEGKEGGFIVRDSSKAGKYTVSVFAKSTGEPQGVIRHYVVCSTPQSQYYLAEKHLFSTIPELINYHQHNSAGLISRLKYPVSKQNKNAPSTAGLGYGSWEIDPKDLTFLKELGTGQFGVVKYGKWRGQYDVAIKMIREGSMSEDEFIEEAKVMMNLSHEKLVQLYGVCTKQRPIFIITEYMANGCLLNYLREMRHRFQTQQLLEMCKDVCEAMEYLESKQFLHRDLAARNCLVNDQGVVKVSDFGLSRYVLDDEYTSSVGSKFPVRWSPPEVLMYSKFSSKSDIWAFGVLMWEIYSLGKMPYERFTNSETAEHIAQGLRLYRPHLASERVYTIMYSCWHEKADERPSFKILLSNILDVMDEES

For O=P(O)(O)O[C@@H]1[C@H](O)[C@H](O)[C@@H](OP(=O)(O)O)[C@H](OP(=O)(O)O)[C@H]1O [IP3], which “Y551 phosphorylation of BTK^E41K” value is on record?
The value was “does not induce”.

Which “Y551 phosphorylation of BTK^E41K” value does the source give for O=P(O)(O)OC1C(OP(=O)(O)O)C(OP(=O)(O)O)C(OP(=O)(O)O)C(OP(=O)(O)O)C1OP(=O)(O)O (centres unmarked) [IP6, inositol hexakisphosphate] here?
Its value is “significantly increases”.
